Legend:
[1] = tested on: collagen-induced arthritis (CIA); test: Collagen-induced arthritis (CIA) in mice; type: in vivo, DBA/1 mice
Excerpt: Figure 5 Orally administrated ERG240 reduced the severity of crescentic glomerulonephritis in rats and CIA in mice. (a) Glomerular crescents, serum creatinine, and proteinuria levels measured in vehicle and ERG240 treated rats at day 10 following induction of nephrotoxic nephritis. At least n=4 rats were used in each group. (b) Col1a1 immunofluorescence (IF) quantification (left panel), representative IF and Sirius red staining images (middle panel) and Col1a1 qRT-PCR (normalized to Hprt) 28 days following NTS injection. Original magnification, × 20, at least n=4 animals were used in each group. (c) Clinical progression of CIA measured by the Mean Arthritis Index in vehicle and ERG240-treated animals in both studies (prophylactic and therapeutic, upper panel; at least n=6 animals per group). Histological analysis of joints from representative whole paws scored for inflammation, pannus formation, cartilage damage and bone resorption (lower panel). Error bars are s.e.m. Either Mann–Whitney or Student’s t-test were used for significance. *** P<0.001, ** P<0.01, * P<0.05. Scale bars, 50 μm.
DBA/1 mice (6–8 weeks old from Harlan Sprague Dawley Inc.) were injected s.c. with 100 μg of bovine type II collagen emulsified in complete Freund’s adjuvant (Sigma). At day 21 following primary immunization, the mice were given a booster injection of 100 μg of bovine type II collagen emulsified in incomplete Freund’s adjuvant. The prophylactic arm of the study involved water-treated (vehicle control, n=6) and ERG240-treated (720 mg kg^−1, o.p., qdx5, 3 weeks, n=10) animals, while the therapeutic arm of the study involved water-treated (vehicle control, n=10) and ERG240-treated (1,000 mg kg^−1, o.p., qdx5, 4 weeks, n=10) animals. Parafin-embedded paws were sectioned at ∼5 μm. One slide from each paw was stained with hematoxylin and eosin (H&E) and served as a reference, while four additional slides were stained using antibodies against F4/80 (AbD Serotec). The expression of the above markers in the joints of the preserved CIA tissues was scored according to the following scale: 0=no staining; 1=minimal; 2=mild; 3=moderate; 4=marked; and 5=diffuse and severe staining (see Supplementary Methods for detailed histological evaluation of CIA tissues). Serum levels of TNF and RANKL were analysed using relevant ELISA kits from Biolegend (TNF-α) and Abcam (RANKL) according to the manufacturers’ instructions. Details for determining the presence of antibodies against type II collagen are provided in Supplementary Methods.
Clinical and histological evaluation methods in CIA
Development of arthritis was assessed ever y other da y and scored on a scale of 0-4 as follows: 0=no oedema or swelling, 1=slight oedema and er ythema restricted to the foot or ankle, 2=moderate to severe oedema and er ythema restricted to the foot or ankle, 3 =oedem a and erythema of the entire paw, and 4=maximum inflamed limb i nvolving multiple joints.
The maximal arthritic score or arthritic index (AI) per animal was 16 (cumulative for 4 limbs).Paw thickness was measured before termination of the experiment . […]
Histological evaluation of CIA t issues.
Dosing of the animals in the proph ylactic groups started on the da y of the booster injection (day 21), while dosing of the animals in the therapeutic groups started after arthritis was established (da y 26). Animals were scored for the presence of arthritis ever y other da y and weighed once a week. At the end of the study, sera were obtained b y cardiac puncture and paws were excised for histological examination (HistoTox Labs Inc). From each therap eutic group, three front and four hind paws were selected for histological an al ys is . Paws were fixed in 4% formalin and decalcified in formic acid. Parafin sections (8 µm) were stained with toluidine blue (T-blue). The sections were evaluated blindly and scored for inflammation, pannus infiltration, cartilage damage, and bone erosion according to scale shown here. […]

[2] = Water solubility; type: physicochemical
[3] = excised paws after completion of CIA

## CC(=O)C(C)CCC(=O)O (stereo not shown) [ERG240]
[1]; CIA mice, ELISA
  serum Tnf levels: diminished levels
  serum Tnfsf11 (RANKL) levels: diminished levels
[1]; [3]
  decrease of bone erosion (paw histology): 86%
  decrease of cartilage degradation (paw histology): 74%
  decrease of inflammation (paw histology): 53%
  decrease of pannus formation (paw histology): 86%
[1]; immunohistochemistry of excised paws
  F4/80+ macrophages in the joints: significant reduction
[1]; only in the fore paws, therapeutic study
  joint oedema: significant decrease
[1]; oral, prophylactic 720 mg kg^−1, therapeutic 1000 mg kg^−1
  severity of CIA (Mean Arthritis Index): alleviates the severity of CIA
[2]
  water solubility: water-soluble

— paper PMC5510229, “BCAT1 controls metabolic reprogramming in activated human macrophages and is associated with inflammatory diseases” (Nature Communications, 2017)
